# According to patent US20040121410A1, “Pain signaling molecules” (priority 2002, published 2004):
# “Also recorded” adds a separate entry of the source.
# Legend:
# [1] = test system: γ2-MSH-induced calcium release in HEK-MrgC11; assay: γ2-MSH-induced [Ca2+]i response in HEK-MrgC11 with pathway inhibitors; assay type: cell-based, human; details: HEK-MrgC11, 1 μM γ2-MSH; 10 μM U73122 or U73343 10 min pretreatment; 1 μM TG in 2 mM EGTA
# Experimental: (§1) Cells loaded with Fura-2/AM were stimulated with each agonist and fluorescence was recorded. Graphs represent an average plot of [Ca^2+]i measurements versus time (in s) in a minimum of 8 cells from representative experiments. Individual data points represent images taken at 0.8-s intervals. […] After a 10 minute pretreatment with U73122 and U73343, each agonist was added. FIGS. 2B and E show the extracellular [Ca^2+] dependency of Ca^2+ mobilization. Cells were preincubated for 2 minutes with 2 mM EGTA (open circles) or normal medium containing 1.2 mM calcium (closed circles) and then 3 μM FLRFa or 1 μM γ2-MSH was added. […] In the presence of 2 mM EGRA, TG (1 μM final concentration) was added to deplete internal Ca^2+ stores.
# (§2) The calcium source responsible for the initial peak in [Ca^2+]i was determined by depleting internal calcium stores with the application of 1 μM TG (FIGS. 2C and F).
# (§3) Heterotrimeric G proteins of the Gαi and Gαq class are involved in the propagation of signals from GPCRs leading to [Ca^2+]i elevation (Guderman et al. Ann. Rev. Pharmacol. Toxicol. 36:429-459 (1996)). To determine whether Gαi/o proteins are involved in the [Ca^2+]i response, we pretreated HEK-MrgA1 or HEK-MrgC11 cells with PTX (100 ng/ml) for 16 h. […] The dose dependency in [Ca^2+]i responses for both receptors were not affected by PTX (FIGS. 4A and D).
# [2] = test system: FLRFa-induced calcium release in HEK-MrgA1; assay: FLRFa-induced [Ca2+]i response in HEK-MrgA1 with pathway inhibitors; assay type: cell-based, human; details: HEK-MrgA1, 3 μM FLRFa; 10 μM U73122 or U73343 10 min pretreatment; 1 μM TG in 2 mM EGTA
# Experimental: as §1, §2, §3
SMILES,effect on γ2-MSH-induced calcium response [1],effect on FLRFa-induced calcium response [2]
COc1ccc2c(c1)CC[C@@H]1[C@@H]2CC[C@]2(C)[C@@H](NCCCCCCN3C(=O)C=CC3=O)CC[C@@H]12 [U73122],blocked; also recorded: completely inhibited,blocked; also recorded: completely inhibited
COc1ccc2c(c1)CC[C@@H]1[C@@H]2CC[C@]2(C)[C@@H](NCCCCCCN3C(=O)CCC3=O)CC[C@@H]12 [U73343],did not significantly affect,did not significantly affect
"C/C=C(/C)C(=O)O[C@H]1C(C)=C2[C@H]([C@@H]1OC(=O)CCCCCCC)[C@@](C)(OC(C)=O)C[C@H](OC(=O)CCC)[C@@]1(O)[C@H]2OC(=O)[C@@]1(C)O [TG, thapsigargin]",prevents; also recorded: blocked the response,prevents; also recorded: blocked the response
